In PubChem BioAssay AID256 (DTP/NCI, 2004):
Values joined by “and” are separate entries in the source; they are usually repeats but may differ in a detail not shown here. Equal entries are not always repeated. Toxic doses and inconclusive results are not listed.

Test system: CD2F1 mice, L1210 leukemia ip, survival T/C
Assay: NCI In Vivo Anticancer Drug Screen. Data for tumor model L1210 Leukemia (intraperitoneal) in CD2F1 (CDF1) mice
Settings: higher = longer survival
How it was run: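 Compound-dosed mice with transplantable tumor versus matched vehicle controls; endpoint ratio T/C reported.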

[1] = endpoint: mean survival time, dose: 100.0 mg/kg/injection, schedule: Q01DX009 (ip), vehicle: saline with Tween-80
[2] = endpoint: mean survival time, dose: 200.0 mg/kg/injection, schedule: Q01DX009 (ip), vehicle: saline with Tween-80

O=C(OCC1OC([Se])C(OC(=O)c2ccccc2)C(OC(=O)c2ccccc2)C1OC(=O)c1ccccc1)c1ccccc1.[CH3][Sb][CH3] (configuration not stated)
T/C (endpoint: mean survival time, dose: 50.0 mg/kg/injection, schedule: Q01DX009 (ip), vehicle: Klucel (hydroxypropylcellulose) (HPC)): 100 % of control | T/C (endpoint: mean survival time, dose: 100.0 mg/kg/injection, schedule: Q01DX009 (ip), vehicle: Klucel (hydroxypropylcellulose) (HPC)): 103 % of control | T/C (endpoint: mean survival time, dose: 200.0 mg/kg/injection, schedule: Q01DX009 (ip), vehicle: Klucel (hydroxypropylcellulose) (HPC)): 100 % of control

O=C(Nc1ccccc1SC(=O)c1ccccc1)c1ccccc1
T/C (endpoint: mean survival time, dose: 50.0 mg/kg/injection, schedule: Q01DX009 (ip), vehicle: saline with Tween-80): 91 % of control | T/C [1]: 87 % of control | T/C [2]: 91 % of control

COc1cccc2c1C(=O)c1c(O)c3c(c(O)c1C2=O)C[C@@](O)(C(C)=O)C[C@@H]3OC1CC(N(C)C)C(O)C(C)O1 (some centres not stated)
T/C (endpoint: mean survival time, dose: 0.25 mg/kg/injection, schedule: Q01DX009 (ip), vehicle: saline): 109 % of control | T/C (endpoint: mean survival time, dose: 0.5 mg/kg/injection, schedule: Q01DX009 (ip), vehicle: saline): 120 % of control and 111 % of control | T/C (endpoint: mean survival time, dose: 0.5 mg/kg/injection, schedule: Q01DX009 (ip), vehicle: water): 110 % of control | T/C (endpoint: mean survival time, dose: 1.0 mg/kg/injection, schedule: Q01DX009 (ip), vehicle: saline): 105 % of control | T/C (endpoint: mean survival time, dose: 1.0 mg/kg/injection, schedule: Q01DX009 (ip), vehicle: water): 119 % of control | T/C (endpoint: mean survival time, dose: 2.0 mg/kg/injection, schedule: Q01DX009 (ip), vehicle: saline): 102 % of control | T/C (endpoint: mean survival time, dose: 4.0 mg/kg/injection, schedule: Q01DX009 (ip), vehicle: saline): 161 % of control | T/C (endpoint: mean survival time, dose: 8.0 mg/kg/injection, schedule: Q01DX009 (ip), vehicle: saline): 88 % of control and 103 % of control | T/C (endpoint: mean survival time, dose: 8.0 mg/kg/injection, schedule: Q01DX009 (ip), vehicle: water): 88 % of control

Cc1o[nH]c(=O)c1C
T/C [1]: 96 % of control | T/C [2]: 98 % of control | T/C (endpoint: mean survival time, dose: 400.0 mg/kg/injection, schedule: Q01DX009 (ip), vehicle: saline with Tween-80): 98 % of control

CCOC(=O)N1CCN(N=Nc2c(C(=O)OC)n[nH]c2C)CC1
T/C (endpoint: mean survival time, dose: 75.0 mg/kg/injection, schedule: Q01DX001 (ip), vehicle: other): 103 % of control | T/C (endpoint: mean survival time, dose: 150.0 mg/kg/injection, schedule: Q01DX001 (ip), vehicle: other): 105 % of control | T/C (endpoint: mean survival time, dose: 300.0 mg/kg/injection, schedule: Q01DX001 (ip), vehicle: other): 105 % of control

CCCC(=O)Oc1ccc(/C=N/NC(N)=S)nc1
T/C [1]: 182 % of control | T/C (endpoint: mean survival time, dose: 100.0 mg/kg/injection, schedule: Q04DX002 (ip), vehicle: saline with Tween-80): 115 % of control | T/C (endpoint: mean survival time, dose: 178.0 mg/kg/injection, schedule: Q01DX001 (ip), vehicle: saline with Tween-80): 116 % of control | T/C (endpoint: mean survival time, dose: 178.0 mg/kg/injection, schedule: Q04DX003 (ip), vehicle: saline with Tween-80): 118 % of control | T/C [2]: 119 % of control | T/C (endpoint: mean survival time, dose: 266.0 mg/kg/injection, schedule: Q01DX001 (ip), vehicle: saline with Tween-80): 113 % of control | T/C (endpoint: mean survival time, dose: 266.0 mg/kg/injection, schedule: Q04DX003 (ip), vehicle: saline with Tween-80): 121 % of control | T/C (endpoint: mean survival time, dose: 400.0 mg/kg/injection, schedule: Q01DX001 (ip), vehicle: saline with Tween-80): 95 % of control | T/C (endpoint: mean survival time, dose: 400.0 mg/kg/injection, schedule: Q04DX003 (ip), vehicle: saline with Tween-80): 117 % of control | T/C (endpoint: mean survival time, dose: 600.0 mg/kg/injection, schedule: Q01DX001 (ip), vehicle: saline with Tween-80): 124 % of control | T/C (endpoint: mean survival time, dose: 900.0 mg/kg/injection, schedule: Q01DX001 (ip), vehicle: saline with Tween-80): 161 % of control | T/C (endpoint: median survival time, dose: 36.0 mg/kg/injection, schedule: Q01DX005 (ip), vehicle: saline with Tween-80): 151 % of control | T/C (endpoint: median survival time, dose: 50.0 mg/kg/injection, schedule: Q01DX009 (ip), vehicle: saline with Tween-80): 172 % of control | T/C (endpoint: median survival time, dose: 60.0 mg/kg/injection, schedule: Q01DX005 (ip), vehicle: saline with Tween-80): 160 % of control | T/C (endpoint: median survival time, dose: 100.0 mg/kg/injection, schedule: Q01DX005 (ip), vehicle: saline with Tween-80): 162 % of control | T/C (endpoint: median survival time, dose: 100.0 mg/kg/injection, schedule: Q01DX009 (ip), vehicle: saline with Tween-80): 156 % of control and 247 % of control | T/C (endpoint: median survival time, dose: 166.67 mg/kg/injection, schedule: Q01DX005 (ip), vehicle: saline with Tween-80): 112 % of control | T/C (endpoint: median survival time, dose: 200.0 mg/kg/injection, schedule: Q01DX009 (ip), vehicle: saline with Tween-80): 164 % of control and 190 % of control | T/C (endpoint: median survival time, dose: 400.0 mg/kg/injection, schedule: Q01DX009 (ip), vehicle: saline with Tween-80): 113 % of control and 107 % of control

O=[N+]([O-])c1cccc(/C=C/C2(CCl)OCCO2)c1
T/C (endpoint: mean survival time, dose: 100.0 mg/kg/injection, schedule: Q01DX001 (ip), vehicle: saline with Tween-80): 101 % of control | T/C (endpoint: mean survival time, dose: 200.0 mg/kg/injection, schedule: Q01DX001 (ip), vehicle: saline with Tween-80): 116 % of control
